Values quoted from earlier work, collected in patent EP1197217A1, “Use of sodium nitroprussiate in obstetrics and gynaecology” (Ibsa Institut Biochimique S.A., priority 2000, dated 2002).
“And” between values parts separate entries of the source, which are not always exact repeats. Equal values may be shown once.

Test system: cervix
Conditions: in vivo

## O=[N+]([O-])O[C@@H]1CO[C@H]2[C@@H]1OC[C@@H]2O [isosorbide mononitrate]
  cumulative median force necessary to dilate the cervix to 8 mm: 40 newtons and 36 newtons
